From ChEMBL document CHEMBL4184120, “Target ROS to induce apoptosis and cell cycle arrest by 5,7-dimethoxy-1,4-naphthoquinone derivative” (Bioorg Med Chem Lett, 2018)
Calls of active or inactive are those of the source. The rule behind the calls is not given here.

What was measured:
HL-60 [1] = assay: Antiproliferative activity against human HL60 cells after 48 hrs by MTT assay; type: functional, cell-based; conditions: HL-60, 48 h
HeLa = assay: Antiproliferative activity against human HeLa cells after 48 hrs by MTT assay; type: functional, cell-based
A549 = assay: Antiproliferative activity against human A549 cells after 48 hrs by MTT assay; type: functional, cell-based; conditions: A549, 48 h
NCI-H460 = assay: Antiproliferative activity against human NCI-H460 cells after 48 by hrs MTT assay; type: functional, cell-based
HepG2 = assay: Antiproliferative activity against human HepG2 cells after 48 hrs by MTT assay; type: functional, cell-based; conditions: HepG2, 48 h
[2] = Redox potential of the compound in pH 7.4 PBS buffer assessed as half wave potential at 0.4 mM by cyclic voltametry; type: physicochemical; conditions: pH 7.4, 400 µM
[3] = Redox potential of the compound in pH 7.4 PBS buffer assessed as oxidation potential at 0.4 mM by cyclic voltametry; type: physicochemical; conditions: pH 7.4, 400 µM
[4] = Redox potential of the compound in pH 7.4 PBS buffer assessed as reduction potential at 0.4 mM by cyclic voltametry; type: physicochemical; conditions: pH 7.4, 400 µM
HL-60 [5] = assay: Induction of apoptosis in human HL60 cells assessed as condensed nuclei formation after 24 hrs by Hoechst-33342 staining-based fluorescence microscopic analysis; type: functional, cell-based
HL-60 [6] = assay: Induction of apoptosis in human HL60 cells assessed as late apoptotic cells at 1 uM after 48 hrs by Annexin V-FITC/propidium iodide staining based flow cytometry (reference value: 1.23%); type: functional
HL-60 [7] = assay: Induction of apoptosis in human HL60 cells assessed as late apoptotic cells after 48 hrs by Annexin V-FITC/propidium iodide staining based flow cytometry; type: functional, cell-based
WI-38 = assay: Antiproliferative activity against human WI38 cells after 48 hrs by MTT assay; type: cell-based; conditions: WI-38, 48 h
K562 = assay: Antiproliferative activity against human K562 cells after 48 hrs by MTT assay; type: functional, cell-based; conditions: K562, 48 h
HL-60 [8] = assay: Cell cycle arrest in human HL60 cells assessed as accumulation at S phase at 1 uM after 48 hrs by propidium iodide staining based assay (reference value: 46.44%); type: functional
HL-60 [9] = assay: Induction of ROS generation in human HL60 cells after 6 hrs by DCFH-DA staining-based fluorescence microscopic analysis; type: functional, cell-based
HL-60 [10] = assay: Induction of apoptosis in human HL60 cells assessed as nuclear fragmentation at 4 uM preincubated for 1 hr with antioxidant NAC measured after 24 hrs by Hoechst-33342 staining-based fluorescence microscopic analysis; type: functional, cell-based
HL-60 [11] = assay: Induction of ROS generation in human HL60 cells at 4 uM incubated for 6 hrs starting from 1 hr post antioxidant NAC addition by DCFH-DA staining-based fluorescence microscopic analysis; type: functional, cell-based
HL-60 [12] = assay: Cell cycle arrest in human HL60 cells assessed as accumulation at G2/M phase at 1 uM after 48 hrs by propidium iodide staining based assay (reference value: 2.68%); type: functional
HL-60 [13] = assay: Cell cycle arrest in human HL60 cells assessed as accumulation at S phase at 2 uM after 48 hrs by propidium iodide staining based assay (reference value: 46.44%); type: functional
[14] = Selectivity index, ratio of IC50 for human WI38 cells to IC50 for human HL60 cells; type: toxicity; conditions: WI38 cells and HL60 cells, read-out: Ratio IC50
HL-60 [15] = assay: Cell cycle arrest in human HL60 cells assessed as accumulation at G2/M phase at 4 uM incubated for 48 hrs starting from 1 hr post antioxidant NAC addition by propidium iodide staining based assay (reference value: 2.68%); type: functional
HL-60 [16] = assay: Induction of apoptosis in human HL60 cells assessed as late apoptotic cells at 4 uM after 48 hrs by Annexin V-FITC/propidium iodide staining based flow cytometry (reference value: 1.23%); type: functional
HL-60 [17] = assay: Cell cycle arrest in human HL60 cells assessed as accumulation at G0/G1 phase at 1 uM after 48 hrs by propidium iodide staining based assay (reference value: 50.88%); type: functional
HL-60 [18] = assay: Induction of apoptosis in human HL60 cells assessed as early apoptotic cells at 4 uM incubated for 48 hrs starting from 1 hr post antioxidant NAC addition by Annexin V-FITC/propidium iodide staining based flow cytometry (reference value: 3.13%); type: functional
HL-60 [19] = assay: Cell cycle arrest in human HL60 cells assessed as accumulation at S phase at 4 uM incubated for 48 hrs starting from 1 hr post antioxidant NAC addition by propidium iodide staining based assay (reference value: 46.44%); type: functional
HL-60 [20] = assay: Induction of apoptosis in human HL60 cells assessed as early apoptotic cells at 4 uM after 48 hrs by Annexin V-FITC/propidium iodide staining based flow cytometry (reference value: 3.13%); type: functional
HL-60 [21] = assay: Induction of apoptosis in human HL60 cells assessed as early apoptotic cells at 1 uM after 48 hrs by Annexin V-FITC/propidium iodide staining based flow cytometry (reference value: 3.13%); type: functional
HL-60 [22] = assay: Induction of apoptosis in human HL60 cells assessed as late apoptotic cells at 2 uM after 48 hrs by Annexin V-FITC/propidium iodide staining based flow cytometry (reference value: 1.23%); type: functional
HL-60 [23] = assay: Cell cycle arrest in human HL60 cells assessed as accumulation at G0/G1 phase at 4 uM incubated for 48 hrs starting from 1 hr post antioxidant NAC addition by propidium iodide staining based assay (reference value: 50.88%); type: functional
HL-60 [24] = assay: Induction of apoptosis in human HL60 cells assessed as nuclear fragmentation after 24 hrs by Hoechst-33342 staining-based fluorescence microscopic analysis; type: functional, cell-based
HL-60 [25] = assay: Cell cycle arrest in human HL60 cells assessed as accumulation at G0/G1 phase at 2 uM after 48 hrs by propidium iodide staining based assay (reference value: 50.88%); type: functional
[26] = Selectivity ratio of IC50 for human K562 cells to IC50 for human HL60 cells; type: functional
HL-60 [27] = assay: Cell cycle arrest in human HL60 cells assessed as accumulation at G2/M phase at 2 uM after 48 hrs by propidium iodide staining based assay (reference value: 2.68%); type: functional
HL-60 [28] = assay: Induction of apoptosis in human HL60 cells assessed as early apoptotic cells after 48 hrs by Annexin V-FITC/propidium iodide staining based flow cytometry; type: functional, cell-based
HL-60 [29] = assay: Cell cycle arrest in human HL60 cells assessed as accumulation at G0/G1 phase at 4 uM after 48 hrs by propidium iodide staining based assay (reference value: 50.88%); type: functional
HL-60 [30] = assay: Cell cycle arrest in human HL60 cells assessed as accumulation at S phase at 4 uM after 48 hrs by propidium iodide staining based assay (reference value: 46.44%); type: functional
HL-60 [31] = assay: Induction of apoptosis in human HL60 cells assessed as necrotic cells after 48 hrs by Annexin V-FITC/propidium iodide staining based flow cytometry; type: functional, cell-based
HL-60 [32] = assay: Induction of apoptosis in human HL60 cells assessed as early apoptotic cells at 2 uM after 48 hrs by Annexin V-FITC/propidium iodide staining based flow cytometry (reference value: 3.13%); type: functional
HL-60 [33] = assay: Cell cycle arrest in human HL60 cells assessed as accumulation at G2/M phase at 4 uM after 48 hrs by propidium iodide staining based assay (reference value: 2.68%); type: functional
HL-60 [34] = assay: Induction of apoptosis in human HL60 cells assessed as late apoptotic cells at 4 uM incubated for 48 hrs starting from 1 hr post antioxidant NAC addition by Annexin V-FITC/propidium iodide staining based flow cytometry (reference value: 1.23%); type: functional
HL-60 [35] = assay: Induction of apoptosis in human HL60 cells assessed as condensed nuclei formation at 4 uM preincubated for 1 hr with antioxidant NAC measured after 24 hrs by Hoechst-33342 staining-based fluorescence microscopic analysis; type: functional, cell-based

SMILES: COc1cc(OC)c2c(c1)C(=O)C(O)=CC2=O
- IC50 (HL-60 [1]): > 100 µM
- IC50 (HeLa): > 100 µM
- IC50 (A549): > 100 µM
- IC50 (NCI-H460): > 100 µM
- IC50 (HepG2): > 100 µM

SMILES: COc1cc(OC)c2c(c1)C(=O)C(O)=C(CCC1CCCCC1)C2=O
- IC50 (HL-60 [1]): 95.8 µM
- IC50 (HeLa): 79.4 µM
- IC50 (A549): 78.5 µM
- IC50 (NCI-H460): 86.2 µM
- IC50 (HepG2): 49.9 µM

SMILES: COc1ccc(CCC2=C(O)C(=O)c3cc(OC)cc(OC)c3C2=O)cc1
- IC50 (HL-60 [1]): 93.1 µM
- IC50 (HeLa): 72.8 µM
- IC50 (A549): 82.4 µM
- IC50 (NCI-H460): 97.5 µM
- IC50 (HepG2): 60.7 µM

SMILES: CCCC1=C(O)C(=O)c2cc(OC)cc(OC)c2C1=O
- IC50 (HL-60 [1]): > 100 µM
- IC50 (HeLa): > 100 µM
- IC50 (A549): 78.7 µM
- IC50 (NCI-H460): > 100 µM
- IC50 (HepG2): > 100 µM

SMILES: COc1cc(OC)c2c(c1)C(=O)C(O)=C(CCc1ccc(N(CCCl)CCCl)cc1)C2=O
- IC50 (HL-60 [1]): 26.1 µM
- IC50 (HeLa): > 100 µM
- IC50 (A549): > 100 µM
- IC50 (NCI-H460): > 100 µM
- IC50 (HepG2): 81.4 µM

SMILES: O=c1[nH]cc(F)c(=O)[nH]1 [FLUOROURACIL]
- IC50 (HL-60 [1]): 67.2 µM
- IC50 (HeLa): 30.2 µM
- IC50 (HepG2): 36.6 µM

SMILES: CCCCCCCCCCCCC1=C(O)C(=O)c2cc(OC)cc(OC)c2C1=O
- IC50 (HL-60 [1]): 86.7 µM
- IC50 (HeLa): > 100 µM
- IC50 (A549): > 100 µM
- IC50 (NCI-H460): > 100 µM
- IC50 (HepG2): > 100 µM

SMILES: COc1cc(OC)c2c(c1)C(=O)C(O)=C(CCc1ccccc1)C2=O
- IC50 (HL-60 [1]): 96.1 µM
- IC50 (HeLa): > 100 µM
- IC50 (A549): > 100 µM
- IC50 (NCI-H460): > 100 µM
- IC50 (HepG2): 95.7 µM

SMILES: CCCCC1=C(O)C(=O)c2cc(OC)cc(OC)c2C1=O
- Activity [2]: -0.278 V
- Activity [3]: -0.227 V
- IC50 (HL-60 [1]): > 100 µM
- IC50 (HeLa): > 100 µM
- Activity [4]: -0.328 V
- IC50 (A549): 65.4 µM
- IC50 (NCI-H460): > 100 µM
- IC50 (HepG2): 95.9 µM

SMILES: CCCCC1=C(Cl)C(=O)c2cc(OC)cc(OC)c2C1=O
- Activity (HL-60 [5]): Dose-dependent effect
- Activity (HL-60 [6]): 14.9%
- Activity (HL-60 [7]): Dose-dependent effect
- IC50 (WI-38): 40.7 µM
- IC50 (K562): 32.3 µM
- Activity [2]: -0.202 V
- Activity (HL-60 [8]): 51.13%
- Activity (HL-60 [9]): Dose-dependent effect
- Activity (HL-60 [10]): Active
- Activity (HL-60 [11]): inactive
- Activity (HL-60 [12]): 13.15%
- Activity (HL-60 [13]): 47.42%
- Activity [3]: -0.169 V
- selectivity ratio [14]: 10.7
- IC50 (HL-60 [1]): 3.8 µM
- Activity (HL-60 [15]): 7.8%
- Activity (HL-60 [16]): 40.4%
- Activity (HL-60 [17]): 35.72%
- Activity (HL-60 [18]): 2.08%
- Activity (HL-60 [19]): 43.67%
- IC50 (HeLa): 22.3 µM
- Activity [4]: -0.235 V
- Activity (HL-60 [20]): 26.6%
- Activity (HL-60 [21]): 4.48%
- Activity (HL-60 [22]): 20.9%
- Activity (HL-60 [23]): 48.52%
- Activity (HL-60 [24]): Dose-dependent effect
- Activity (HL-60 [25]): 34.89%
- Ratio IC50 [26]: 8
- Activity (HL-60 [27]): 17.69%
- Activity (HL-60 [28]): Dose-dependent effect
- Activity (HL-60 [29]): 18.18%
- IC50 (A549): 24.1 µM
- Activity (HL-60 [30]): 49.89%
- IC50 (NCI-H460): 38.7 µM
- Activity (HL-60 [31]): Dose-dependent effect
- Activity (HL-60 [32]): 7.35%
- IC50 (HepG2): 23.1 µM
- Activity (HL-60 [33]): 31.93%
- Activity (HL-60 [34]): 6.78%
- Activity (HL-60 [35]): Active

SMILES: CCC1=C(O)C(=O)c2cc(OC)cc(OC)c2C1=O
- IC50 (HL-60 [1]): > 100 µM
- IC50 (HeLa): 96.5 µM
- IC50 (A549): > 100 µM
- IC50 (NCI-H460): > 100 µM
- IC50 (HepG2): > 100 µM
